The numbers were not newly measured in US9233901B2, “Synthetic navel orangeworm pheromone composition and methods relating to production of same” (Suterra LLC, priority 2008, dated 2016), which cites them from elsewhere.

This data set relates to major pheromone binding protein (AtraPBP). As to conditions: shown in other studies (Leal et al. 2005).

With `CC/C=C\C=C/CCCCCCCCCC=O` [HDAL, (Z, Z)-11,13-hexadecadienal], the “affinity for binding to a major pheromone binding protein (AtraPBP)” value is listed as “high affinity”.
